Reference: US20060068503A1, “Solid support membranes for ion channel arrays and sensors: application ro rapid screening of pharmacological compounds” (priority 2004, published 2006)

Key:
Kv1.5 K+ channel = target: T1, Kv1.5 K+ channel (Homo sapiens, UniProt P22460); experiment: Whole cell patch clamp of dexamethasone-induced Kv1.5-transfected Ltk-cells; format: cell-based; conditions: Ltk-cells overexpressing Kv1.5, whole cell patch clamp
T1 construct: expressed in transfected cells; host or cells: Ltk- cells (mouse fibroblasts), stably transfected, expression induced with 2 uM dexamethasone
T1 sequence (P22460 whole entry): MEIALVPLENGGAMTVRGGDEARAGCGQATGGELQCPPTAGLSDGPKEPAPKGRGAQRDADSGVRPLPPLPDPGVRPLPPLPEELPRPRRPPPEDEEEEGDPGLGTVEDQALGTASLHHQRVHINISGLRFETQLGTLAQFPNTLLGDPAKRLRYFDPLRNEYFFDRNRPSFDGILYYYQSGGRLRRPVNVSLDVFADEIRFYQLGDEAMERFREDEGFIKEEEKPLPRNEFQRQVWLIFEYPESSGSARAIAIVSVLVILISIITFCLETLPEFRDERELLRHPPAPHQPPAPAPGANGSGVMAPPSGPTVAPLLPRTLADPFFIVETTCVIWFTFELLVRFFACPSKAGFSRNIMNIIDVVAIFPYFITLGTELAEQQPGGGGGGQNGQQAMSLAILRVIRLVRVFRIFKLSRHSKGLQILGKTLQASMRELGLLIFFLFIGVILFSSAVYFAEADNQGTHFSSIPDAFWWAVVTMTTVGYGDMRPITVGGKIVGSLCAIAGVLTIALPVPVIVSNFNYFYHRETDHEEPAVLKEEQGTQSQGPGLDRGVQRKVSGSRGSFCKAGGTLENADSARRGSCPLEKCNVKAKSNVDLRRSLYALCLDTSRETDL
Experimental: Whole-cell Kv1.5 current recordings are made at room temperature via the gigaseal patch clamp technique using an Axopatch-1D amplifier (Axon Instruments, Foster City, Calif.). Ltk-cells overexpressing Kv1.5 channels are cultured for 24-72 hr, induced to express Kv1.5 channels by 24 hr incubation with 2 μM dexamethasone prior to use for patch clamp studies. Small, spherical cells approximately 10 microns in diameter are used for all patch recordings. Electrodes are made from TW-150F glass capillary tubes (World Precision Instruments, New Haven Conn.) and had resistances of 1.5-3.0 megohms when filled with internal solution containing: 110 Mm KCl, 5 mM K2ATP, 5 mM K4BAPTA, 1 mM MgCl2 and 10 mM HEPES, adjusted to pH 7.2 with KOH. The external solution contained: 130 mM NaCl, 4 mM KCl, 1.8 mM CaCl2 1 mM MgCl2, 10 mM HEPES, 10 mM glucose, adjusted to pH 7.4 with NaOH. Series resistance is compensated following rupture of the seal. Currents are sampled at 1 KHZ and filtered at 500 Hz. Cells are pulsed to +60 mV every 5 sec from a holding potential of −70 mV in 20 mV increments. […] Whole cell patch data are analyzed using Clampfit 8.0 in pCLAMP software (Axon Instruments). IC50 values for compounds are determined by nonlinear regression analysis using GraphPad Prism software (San Diego, Calif.).

[1] = target: T2, Kv1.5 K+ channels reconstituted on the SSM (Homo sapiens, UniProt P22460); experiment: Kv1.5 K+ channel current on solid supported membrane (SSM); format: biochemical; conditions: for IC50: SSM-reconstituted channels, -80 mV, n=3, read-out: half-maximal inhibition of Kv1.5 K+ channel current, IC50
T2 construct: expressed in transfected cells; host or cells: Ltk- cells (mouse fibroblasts), stably transfected, expression induced with 2 uM dexamethasone
T2 sequence (P22460 whole entry): as above
Experimental: An Ltk-cell line (mouse fibroblast cells) stably overexpressing Kv1.5 K+ channels under control of a dexamethasone promoter is used to prepare plasma membrane vesicles. Expression of Kv1.5 is induced in Ltk-cells by addition of dexamethasone to the medium. The dexamethasone-specific induction of channel expression is totally specific for Kv1.5 channels. Cells are grown in 2 μM dexamethasone for 24 hr prior to use. The cells are centrifuged for 5 min at 1000 rpm and resuspended in 1.0 ml of 20 mM HEPES (pH 7.5), 20 mM NaCl, 100 mM KCl, 1.0 mM EDTA, 0.02% NaN3, 1 mM PMSF, 10 μg/μl leupeptin, and 50 μg/μl aprotinin. After freeze-thawing twice, the membrane fragments/vesicles are collected following centrifugation at 12,000 g for 20 min at 4 °C. Membrane vesicles are also prepared from uninduced Ltk-cells (no dexamethasone incubation) transfected with Kv1.5 K+ channel cDNA and from non-transfected Lkt-cells.
Glass slides are first plated with chromium (5 nm), and then gold (150 nm). The slide is then immersed in ethanol containing 1% octadecanethiol (w/w) for 48 hr to attach alkyl thiol groups. After cleaning the gold plated slide with anhydrous isopropanol, epoxy resin is applied to the surface of the thiol-treated gold. Defects in the epoxy resin coating are used as the experimental chamber after coating the device with a lipid monolayer. […]
Membrane vesicles containing Kv1.5 K+ channels are added to the lipid coated wells containing 125 mM KCl/10 mM K-HEPES pH 7.4. Currents are measured with an HS-2A headstage and Gene Clamp 500 amplifier (Axon Instruments). […] Voltages ranging from −80 mV to +70 mV are applied in 10 mV increments for 200 msec, and electrical currents are recorded. […] Cation selectivity is measured by removing K+ from the medium and replacing it with Na+. Currents are first measured with K+ present. SSMs are then washed with K+-free, Na+-containing medium and currents were measured with Na+ present. Currents with K+ present are re-measured. […]

Structure (SMILES) | IC50 (Kv1.5 K+ channel) | effect on current at varying holding potentials ([1]; 100 nM, holding potentials outside the range of ±20 mV) | IC50 [1]
CCc1ccc(S(=O)(=O)N[C@H]2c3cc(NC(=O)c4cccc(OC)c4)ccc3C[C@@H]2O)cc1 [Compound A, N-[(2S,3S)-3-[[(4-ethylphenyl)sulfonyl]amino]-2,3-dihydro-2-hydroxy-1H-inden-5yl]-3-methoxybenzamide] | 170 nM | current decreased | 218 nM
COc1ccc(CCN2C(=O)CSC2c2ccc(C)c(C)c2)cc1 (centres unmarked) [Compound B, 2-(3,4-dimethyphenyl)-3-[2-(4-methoxyphenyl)ethyl]-thiazolidin-4-one] | 137 nM | – | 265 nM
